Patent US8722072B2, “Acaricidal and/or insecticidal active ingredient combinations” (priority 2010, dated 2014)

How the values were obtained:
Assay type in all cases: in vivo
Tetranychus urticae [1] = experiment: Example 3: field test on tomatoes against Tetranychus urticae; details: adults on leaves, 3 days after treatment
Procedure: In plots measuring approximately 6 m^2, tomatoes of the cultivar “Leader” are treated in three replications against Tetranychus urticae. Application takes place using a back-mounted spray (4.5 bar). […] The water application rate is 1000 l/ha.
Evaluation is made 3 days after treatment, by scoring the destruction of the adults on the leaves.

[2] = system: whitefly (Bemisia tabaci); experiment: Example 10: Bemisia tabaci - test on cotton; details: cotton plants, spray
Procedure: Bemisia tabaci—Test on Cotton
(§1) • Solvent: 7 parts by weight of dimethylformamide • Emulsifer: 2 parts by weight of alkylaryl polyglycol ether
(§2) An appropriate preparation of active ingredient is prepared by mixing 1 part by weight of active ingredient with the stated amounts of solvent and emulsifier and diluting the concentrate with emulsifier-containing water to the desired concentration.
Cotton plants (Gossypium hirsutum) infested with whitefly (Bemisia tabaci) are treated by being sprayed with the preparation of active ingredient at the desired concentration.
(§3) After the desired time, the destruction is determined in %. 100% here means that all of the whitefly have been killed; 0% means that no whitefly have been killed. The destruction figures ascertained are calculated by the Colby formula.

Hemitarsonemus latus = experiment: Example 7: field test on bell peppers against Hemitarsonemus latus; details: adults on leaves, 2 days after treatment
Procedure: In plots measuring approximately 6 m^2, bell peppers of the cultivar “California Wonder” (growth stage 75) are treated in three replications against Hemitarsonemus latus. Application takes place using a sprayer at 2.5 bar pressure. […] The water application rate is 300 l/ha.
Evaluation is made 2 days after treatment, by scoring the destruction of the adults on the leaves.

Tetranychus urticae [3] = experiment: Example 2: field test on roses (Blizard) against Tetranychus urticae; details: adults on leaves, 3 days after treatment
Procedure: In plots measuring approximately 6 m^2, roses of the cultivar “Blizard” with an age of approximately 3 years are treated in three replications against Tetranychus urticae. Application takes place using a back-mounted spray (3.5 bar). […] The water application rate is 1320 l/ha. Evaluation is made 3 days after treatment, by counting the adults on the leaves/square inch. Subsequently, the activity is calculated as a percentage by the method of Henderson and Tilton.

Tetranychus urticae [4] = experiment: Example 1: field test on aubergines against Tetranychus urticae; details: for Destruction (% Abbott) 1 day: 1 day after treatment; for Destruction (% Abbott) 55 days: 55 days after treatment; for Destruction (% Abbott) 45 days: 45 days after treatment
Procedure: In plots measuring approximately 14 m^2, aubergines (around 11 weeks after planting out) of the cultivar “Heilongchangqie” are treated in three replications against Tetranychus urticae. Application takes place using a sprayer. […] The water application rate is 450 l/ha.
Evaluation is made 1 day and 55 days after treatment, by scoring the destruction of the eggs on the leaves.
A further evaluation is made 45 and 55 days after treatment, by scoring the destruction of the nymphs on the leaves.

[5] = system: larvae of the seven-spotted ladybird (Coccinella septempunctata); experiment: Example 13: Coccinella septempunctata larvae - test on plums (beneficial species); details: plum leaves, spray
Procedure: Coccinella septempunctata/Larvae—Test on Plums
An appropriate solution for application is prepared by diluting the respective formulation to the desired concentration.
Plum leaves colonized by larvae of the seven-spotted ladybird (Coccinella septempunctata) are treated by being sprayed with the application solution at the desired concentration.
After the desired time, the destruction is determined in %. 100% here means that all of the ladybird larvae have been killed; 0% means that no ladybird larvae have been killed. The destruction figures ascertained are calculated by the Colby formula.

Tetranychus urticae [6] = experiment: Example 4: field test on cotton plants against Tetranychus urticae; details: population on leaves, 13 days after treatment
Procedure: In plots measuring approximately 15 m^2, cotton plants of the cultivar “BRS Aroeira” with a height of approximately 80 cm are treated in three replications against Tetranychus urticae. Application takes place using a spray at 2.5 bar. […] The water application rate is 200 l/ha.
Evaluation is made 13 days after treatment, by scoring the destruction of the population on the leaves.

Tetranychus urticae [7] = experiment: Example 6: field test on aubergines (Suqi qie) against Tetranychus urticae, ready-prepared mixture 20:1; details: for Destruction (% Abbott) 21 days (eggs) / Destruction (% Abbott) 21 days (males) / Destruction (% Abbott) 21 days (population): 21 days after treatment; for Destruction (% Abbott) 1 day: males on leaves, 1 day after treatment; for Destruction (% Abbott) 21 days (population): total population
Procedure: In plots measuring approximately 8 m^2, aubergines (growth stage 15) of the cultivar “Suqi qie” are treated in three replications against Tetranychus urticae. Application takes place using a back-mounted sprayer. […] The water application rate is 450 l/ha.
Evaluation is made 1 day after treatment, by scoring the destruction of the males on the leaves.
A further evaluation is made 21 days after treatment, by scoring the destruction of the eggs, the destruction of the males, and the total population on the leaves.

[8] = system: whitefly (Bemisia tabaci); experiment: Example 11: Bemisia tabaci - test on cabbage; details: cabbage plants, spray
Procedure: Bemisia tabaci—Test on Cabbage
as §1, §2
Cabbage plants (Brassica oleracea) infested with whitefly (Bemisia tabaci) are treated by being sprayed with the preparation of active ingredient at the desired concentration.
as §3

Tetranychus urticae [9] = experiment: Example 5: field test on roses (Freedom) against Tetranychus urticae; details: population on leaves, 1 day after treatment
Procedure: In plots measuring approximately 14 m^2, roses (growth stage 46) of the cultivar “Freedom” in double rows are treated in three replications against Tetranychus urticae. Application takes place using a back-mounted spray. In this example, the mixture of the active ingredients Oberon, Example (I), and abamectin, Example (VI), is tested against the commercial standards abamectin (018 EC) and Oberon (240 SC) at the stated application rates and in the stated mixing ratios. The water application rate is 1000 l/ha.
Evaluation is made 1 day after treatment, by scoring the destruction of the population on the leaves.

[10] = system: two-spotted spider mite (Tetranychus urticae); experiment: Example 8: Tetranychus urticae - test on cotton; details: cotton plants, spray
Procedure: Tetranychus urticae—Test on Cotton
• Solvent: 7 parts by weight of dimethylformamide • Emulsifier: 2 parts by weight of alkylaryl polyglycol ether
as §2
Cotton plants (Gossypium hirsutum) infected with the two-spotted spider mite (Tetranychus urticae) are treated by being sprayed with the preparation of active ingredient in the desired concentration.
After the desired time, a determination is made of the destruction in %. 100% here means that all of the mites have been killed; 0% means that no mites have been killed. The destruction figures ascertained are calculated by the Colby formula.

[11] = system: Frankliniella occidentalis; experiment: Example 9: field test on bell peppers against Frankliniella occidentalis; details: for Destruction (% Abbott) 7 days: adults in the flowers, 7 days after the second treatment; for Destruction (% Abbott) 14 days: mixed population in the flowers, 14 days after the second treatment
Procedure: In plots measuring approximately 10 m^2, bell peppers of the cultivar “Italiano verde” are treated in three replications against Frankliniella occidentalis. Application is made using a back-mounted spray (10 bar). […] The water application rate is 750 l/ha. Two applications are carried out, at an interval of 7 days.
Evaluation is made 7 days after the second treatment, by scoring the destruction of the adults in the flowers.
Evaluation is made 14 days after the second treatment, by scoring the destruction of the mixed population in the flowers.

[12] = nymphs on leaves, 120 g a.i./ha

## Cc1cc(C)c(C2=C(OC(=O)CC(C)(C)C)C3(CCCC3)OC2=O)c(C)c1 [Oberon (I), Spiromesifen]
Tetranychus urticae [1]; 120 g a.i./ha
  Destruction (% Abbott) 3 days: 25.0 % Abbott
[2]; 120 g ai/ha
  Destruction in % after 7d: 70%
Hemitarsonemus latus; 120 g a.i./ha
  Destruction (% Abbott) 2 days: 50 % Abbott
Tetranychus urticae [3]; 105 g a.i./ha
  Activity (% H. + T.) 3 days: 32.2 % H. + T.
Tetranychus urticae [3]; 210 g a.i./ha
  Activity (% H. + T.) 3 days: 40.7 % H. + T.
Tetranychus urticae [4]; eggs on leaves, 120 g a.i./ha
  Destruction (% Abbott) 1 day: 26.7 % Abbott
  Destruction (% Abbott) 55 days: 0 % Abbott
Tetranychus urticae [4]; [12]
  Destruction (% Abbott) 45 days: 14.8 % Abbott
  Destruction (% Abbott) 55 days: 24.1 % Abbott
[5]; 60 g ai/ha
  Destruction in % after 3d: 3%
[5]; 120 g ai/ha
  Destruction in % after 3d: 10%
Tetranychus urticae [6]; 120 g a.i./ha
  Destruction (% Abbott) 13 days: 58.5 % Abbott
Tetranychus urticae [7]; 120 g a.i./ha
  Destruction (% Abbott) 21 days (eggs): 0 % Abbott
  Destruction (% Abbott) 1 day: 0 % Abbott
  Destruction (% Abbott) 21 days (males): 5 % Abbott
  Destruction (% Abbott) 21 days (population): 1.9 % Abbott
[8]; 150 g ai/ha
  Destruction in % after 9d: 55%
Tetranychus urticae [9]; 120 g a.i./ha
  Activity (% Abbott) 1 day: 32.4 % Abbott
[10]; 100 g ai/ha
  Destruction in % after 3d: 30%
[11]; 105 g a.i./ha
  Destruction (% Abbott) 7 days: 3.3 % Abbott
  Destruction (% Abbott) 14 days: 0 % Abbott
[11]; 210 g a.i./ha
  Destruction (% Abbott) 14 days: 0 % Abbott

## abamectin [Abamectin (VI)]
Tetranychus urticae [1]; 10 g a.i./ha
  Destruction (% Abbott) 3 days: 45.8 % Abbott
[2]; 6 g ai/ha
  Destruction in % after 7d: 0%
Hemitarsonemus latus; 10 g a.i./ha
  Destruction (% Abbott) 2 days: 0 % Abbott
Tetranychus urticae [3]; 10.5 g a.i./ha
  Activity (% H. + T.) 3 days: 0 % H. + T.
Tetranychus urticae [3]; 21 g a.i./ha
  Activity (% H. + T.) 3 days: 0 % H. + T.
Tetranychus urticae [4]; eggs on leaves, 10 g a.i./ha
  Destruction (% Abbott) 1 day: 19.8 % Abbott
  Destruction (% Abbott) 55 days: 0 % Abbott
Tetranychus urticae [4]; nymphs on leaves, 10 g a.i./ha
  Destruction (% Abbott) 45 days: 0 % Abbott
  Destruction (% Abbott) 55 days: 0 % Abbott
[5]; 3 g ai/ha
  Destruction in % after 3d: 63%
[5]; 6 g ai/ha
  Destruction in % after 3d: 100%
Tetranychus urticae [6]; 7.2 g a.i./ha
  Destruction (% Abbott) 13 days: 16.5 % Abbott
Tetranychus urticae [7]; 10 g a.i./ha
  Destruction (% Abbott) 21 days (eggs): 0 % Abbott
  Destruction (% Abbott) 1 day: 33.3 % Abbott
  Destruction (% Abbott) 21 days (males): 45 % Abbott
  Destruction (% Abbott) 21 days (population): 47.6 % Abbott
[8]; 6 g ai/ha
  Destruction in % after 9d: 0%
[8]; 15 g ai/ha
  Destruction in % after 9d: 0%
Tetranychus urticae [9]; 6 g a.i./ha
  Activity (% Abbott) 1 day: 27 % Abbott
[10]; 4 g ai/ha
  Destruction in % after 3d: 10%
[11]; 10.5 g a.i./ha
  Destruction (% Abbott) 7 days: 0 % Abbott
  Destruction (% Abbott) 14 days: 0 % Abbott
[11]; 21 g a.i./ha
  Destruction (% Abbott) 14 days: 2.0 % Abbott
